Results reported in patent US7250304B2, “Functional assay of high-density lipoprotein” (The Regents of the University of California, priority 2000, dated 2007).

Legend:
[1] = test system: fibroblasts over expressing 15-LO; test: Removal of 13(S)-HPODE by apo A-I from fibroblasts over expressing 15-LO; type: cell-based; settings: apo A-I 100 μg/ml, 3 hrs
Procedure: Fibroblasts that were transfected with vector alone or cells that over expressed 15-LO were a generous gift of Drs. Joe Witztum and Peter Reaven. In the present experiments, the fibroblasts were incubated with or without 100 μg/ml apo A-I. Following 3 hrs of incubation at 37° C. with gentle mixing, the culture supernatants were removed, apo A-I was separated by FPLC and the level of hydroperoxides determined in lipid extracts of the culture supernatants and in lipid extracts of apo A-I.

LDL = test: Removal of 13-HPODE and 15-HPETE from LDL (RP-HPLC, mass spectrometry); design: species or system human; settings: LDL 1 mg/ml with apo A-I 100 μg/ml, 2 hrs
Procedure: FIG. 6, panels A through H, illustrate the removal of 13-HPODE and 15-HPETE by apo A-I from LDL. Freshly isolated LDL (1 mg/ml) was incubated alone (LDL sham), or with apo A-I (100 μg/ml) in M199 for 2 hrs, with gentle mixing. For controls, 100 μg/ml apo A-I was incubated alone in M 199 for 2 hrs (A-I Sham, Panel A and Panel E) or 1 mg/ml freshly isolated LDL was incubated alone in M 199 for 2 hrs (LDL Sham, Panel B and Panel F) with gentle mixing at 37° C. The LDL and apo A-I were then re-isolated by centrifugation using Millipore molecular weight cut-off filters (100 kDa). Lipids were extracted from apo A-I and from LDL and were analyzed by reverse phase HPLC.
High performance reverse phase liquid chromatography (RP-HPLC) was conducted according to the methods of Ames and colleagues (Yamamoto and Ames (1987) Free Rad. Biol. Med. 3: 359-361), Kambayashi and colleagues (Kambayashi et al. (1997) J. Biochem. 121: 425-431), and Alex Sevanian (personal communication). In brief, the analyses were performed by injecting isolated lipids resuspended in mobile solvent onto the column and eluting with a flow rate of 1.0 ml/min. Detection of fatty acid oxidation products was performed by UV absorbance with a diode array detector (Beckman Instruments) scanning from 200 to 350 nm or with an evaporative light scattering detector (SEDEX 55, France). […]

apo A-I: Human apo A-I from Sigma, major apolipoprotein of HDL; infused into humans as apo A-I/phosphatidylcholine discs
13-HPODE equivalents in lipid extracts of apo A-I, cells over expressing LO vs control cells [1]: 5.1 fold
removal of HPODE and HPETE from freshly isolated LDL (LDL): effectively removed
